From patent US20070190060A1, “Passive targeting of cytotoxic agents” (Wyeth, priority 2004, published 2007)
“And” between values parts separate entries of the source, which are not always exact repeats. Equal values may be shown once.

Key:
LOVO xenografts = experiment: Tumor growth inhibition, subcutaneous LOVO xenografts; format: in vivo, athymic nude mice; details: for T/C (%): LOVO, 4.00 μg per dose, Q4D×3
Protocol: (§1) Subcutaneous tumors of N87, LOVO, A431/Le^y, LS174T and L2987 were grown in athymic nude mice (Charles River, Wilmington, Mass.). Two-month-old female mice were injected with respectively 5×10^6 N87, LOVO, A431/Le^y or LS174T cells per mouse. L2987 cells were injected in male nude mice that were between 7 and 8 weeks old. To grow tumors, N87 cells had to be mixed (1:1, vol/vol) with […]® (Collaborative Biomedical Products, Belford, Mass.) prior to injection. Two perpendicular diameters of the tumor were measured by means of calipers at time intervals specified in the result section. The tumor volume was calculated according to the formula of Attia&Weiss: A^2×B×0.4. A and B are symbols for the smaller and the larger tumor diameter, respectively. The treatment schedules, dose and number of mice per group are specified in the result section and in the figure legends.
(§2) As shown in Table 2 (tumor volume reduction of CD33-tumor xenografts following treatment (T) with hp67.6-AcBut-CalichDMH and expressed as a percentage of controls treated with vehicle (T/C %)), hp67.6-AcBut-CalichDMH inhibited tumor growth of human tumor xenografts with diverse histiotypic origin. […] This value is the average tumor volume of a group of mice that were treated with hp67.6-AcBut-CalichDMH (T) expressed as a percentage of the average tumor volume of a control group (C). Both T and C are determined at the same day following initiation of treatment. The T/C-values in table II were derived from 27 independent experiments and were determined between 17 and 34 days after injection of the first dose of hp67.6-AcBut-CalichDMH. […] Significant inhibition was also observed when lower amounts of the conjugate were administered.

PC3MM2 xenografts = experiment: Tumor growth inhibition, subcutaneous PC3MM2 xenografts; format: in vivo, athymic nude mice; details: 4.00 μg per dose, Q4D×3, 29 days after first dose
HT29 xenografts = experiment: Tumor growth inhibition, subcutaneous HT29 xenografts; format: in vivo, athymic nude mice; details: 4.00 μg per dose, Q4D×3, 33 days after first dose
KB 8.5 xenografts = experiment: Tumor growth inhibition, subcutaneous KB 8.5 xenografts; format: in vivo, athymic nude mice; details: 4.00 μg per dose, Q4D×3, 22 days after first dose
PC14PE6 xenografts = experiment: Tumor growth inhibition, subcutaneous PC14PE6 xenografts; format: in vivo, athymic nude mice
N87 xenografts = experiment: Tumor growth inhibition, subcutaneous N87 xenografts; format: in vivo, athymic nude mice
Protocol: as §1, §2

L2987 xenografts = experiment: Tumor growth inhibition, subcutaneous L2987 xenografts; format: in vivo, athymic nude mice
Protocol: as §1, §2

MDAMB435/5T4 xenografts = experiment: Tumor growth inhibition, subcutaneous MDAMB435/5T4 xenografts; format: in vivo, athymic nude mice
LNCaP xenografts = experiment: Tumor growth inhibition, subcutaneous LNCaP xenografts; format: in vivo, athymic nude mice
[1] = test system: A431 epidermoid carcinoma xenografts; experiment: Tumor growth inhibition, subcutaneous A431 xenografts; format: in vivo, athymic nude mice; details: for average tumor size as % of the control tumors: intravenous, twenty-seven days following onset of therapy
Protocol: as §1, with “respectively.” for “respectively. The treatment schedules, dose and number of mice per group are specified in the result section and in the figure legends.”
[…] Mice with xenografts of approximately 80 mm^3 were selected prior to treatment. The amounts of CalichDMH or conjugate given are expressed in calicheamicn equivalents.
Both T and C are determined at the same day following initiation of treatment.

A431/Le^Y xenografts = experiment: Tumor growth inhibition, subcutaneous A431/LeY xenografts; format: in vivo, athymic nude mice
Protocol: as §1, with “The treatment schedules, dose and number of mice per group are specified in the result section and in the figure legends.” left out
As shown in Table 2 (tumor volume reduction of CD33-tumor xenografts following treatment (T) with hp67.6-AcBut-CalichDMH and expressed as a percentage of controls treated with vehicle (T/C %)), hp67.6-AcBut-CalichDMH inhibited tumor growth of human tumor xenografts with diverse histiotypic origin. […] This value is the average tumor volume of a group of mice that were treated with hp67.6-AcBut-CalichDMH (T) expressed as a percentage of the average tumor volume of a control group (C). Both T and C are determined at the same day following initiation of treatment. […]

[2] = In vivo distribution of 125I-labeled conjugate in A431 tumor-bearing mice; set-up: species or system female nude mice
Protocol: Gemtuzumab ozogamicin was labeled with ^125I using the Bolton-Hunter reagent (NEN, Boston, Mass.). A group of 30 tumor-bearing female nude mice were injected in the lateral tail vein with ^125I-labeled conjugate 20 μCi/[…]. The tumor weight at the time of injection was approximately 1 g. Groups of 5 mice were killed by CO2 inhalation at 2, 6, 24, 48, 72 and 96 h following the injection. The amount of γ radiation in the tissues as specified in FIG. 2 was determined at these time points. Biodistribution of the conjugate was expressed as a percentage of the injected dose per gram tissue (% ID/g) or as a percentage of the blood level at a given time point (% Blood). Steadily increasing concentrations of hp67.6-AcBut-CalichDMH were exclusively observed in tumor tissue. The doubling time of accumulation is 150 h for A431 tumors.
The kinetics of hp67.6-AcBut-CalichDMH in various mouse tissues and in CD33-negative A431-tumor xenografted tumor were compared. Following injection of 200 µg (20 μCi) ^125I labeled conjugate, the amount of radioactive label was measured in various tissues at 2, 6, 24, 48, 72 and 96 h (FIG. 2). The amount of radioactive material was expressed relative to the amount present in whole blood at the time of measurement (% Blood, Y1 axes in FIG. 2). Percent blood (% Blood) is given by the formula, 100×Bq per gram tissue/Bq per gram blood. In addition, the amount of radioactive material was also expressed relative to total amount of conjugate given (% ID/g, Y2 axes in FIG. 2). Only a marginal amount of 125I labeled conjugate is retained in the brain. […] The % Blood was on average 3.5%.

[3] = 2.00 μg per dose, 29 days after first dose
[4] = 4.00 μg per dose, Q4D×3, 29 days after first dose
[5] = 1.00 μg per dose, 28 days after first dose
[6] = 2.00 μg per dose, 28 days after first dose
[7] = 2.00 μg per dose, 30 days after first dose
[8] = 4.00 μg per dose, Q4D×3, 28 days after first dose
[9] = 4.00 μg per dose, Q4D×3, 30 days after first dose
[10] = intravenous administration, same dose, frequency and interval (Q4D×3)
[11] = intraperitoneally Q4D×3, equivalent or higher doses than hp67.6-AcBut-CalichDMH (FIGS. 1B and 1C)

In the case of “hp67.6-AcBut-CalichDMH: antibody against CD33 (hp67.6) bound to N-acetyl gamma calicheamicin dimethyl hydrazide by the acid labile AcBut linker”, the “T/Cmin value (minimum T/C-value observed during an experiment)” value (LOVO xenografts; LOVO colon carcinoma, 4 μg CalichDMH per mouse, intraperitoneally Q4D×3 (FIG. 5)) is reported as “exceptionally high”, the “T/C (%)” value (LOVO xenografts; 25 days after first dose) is reported as 80% and the “T/C (%)” value (LOVO xenografts; 29 days after first dose) is reported as 47% and 76%. The “T/C (%)” value (PC3MM2 xenografts) was 33%, the “T/C (%)” value (HT29 xenografts) was 36% and the “T/C (%)” value (KB 8.5 xenografts) was 27%. For the same molecule, the “T/C (%)” value (PC14PE6 xenografts; 1.00 μg per dose, 29 days after first dose) was 52%, the “T/C (%)” value (PC14PE6 xenografts; 2.00 μg per dose, 17 days after first dose) was 59% and the “T/C (%)” value (PC14PE6 xenografts; [3]) was 42%. For the same molecule, the “T/C (%)” value (PC14PE6 xenografts; 4.00 μg per dose, Q4D×3, 17 days after first dose) was 27%, the “T/C (%)” value (PC14PE6 xenografts; 4.00 μg per dose, Q4D×3, 22 days after first dose) was 15% and the “T/C (%)” value (PC14PE6 xenografts; [4]) was 14%. The “T/C (%)” value (N87 xenografts; [5]) was 55%, the “T/C (%)” value (N87 xenografts; [6]) was 41% and the “T/C (%)” value (N87 xenografts; [7]) was 54%. For the same molecule, the “T/C (%)” value (N87 xenografts; 4.00 μg per dose, Q4D×3, 27 days after first dose) was 19%, the “T/C (%)” value (N87 xenografts; [8]) was 60% and the “T/C (%)” value (N87 xenografts; [9]) was 48%. For the same molecule, the “T/C (%)” value (N87 xenografts; 4.00 μg per dose, Q4D×3, 31 days after first dose) was 39%, the “T/C (%)” value (N87 xenografts; 4.00 μg per dose, Q4D×3, 33 days after first dose) was 39% and 42% and the “T/C (%)” value (L2987 xenografts; 0.75 μg per dose, 21 days after first dose) was 33%. The “T/C (%)” value (L2987 xenografts; 1.50 μg per dose, 21 days after first dose) was 77%, the “T/C (%)” value (L2987 xenografts; [7]) was 5% and the “T/C (%)” value (L2987 xenografts; 3.00 μg per dose, 21 days after first dose) was 5%. The “T/C (%)” value (L2987 xenografts; [9]) was 1%, the “T/C (%)” value (L2987 xenografts; 4.00 μg per dose, Q4D×3, 35 days after first dose) was 1% and the “T/C (%)” value (MDAMB435/5T4 xenografts; [3]) was 45%. The “T/C (%)” value (MDAMB435/5T4 xenografts; [4]) was 32%, the “T/C (%)” value (MDAMB435/5T4 xenografts; 4.00 μg per dose, Q4D×3, 34 days after first dose) was 30% and the “T/C (%)” value (LNCaP xenografts; 0.50 μg per dose, 28 days after first dose) was 102%. For the same molecule, the “T/C (%)” value (LNCaP xenografts; [5]) was 59%, the “T/C (%)” value (LNCaP xenografts; [6]) was 30% and the “T/C (%)” value (LNCaP xenografts; [3]) was 34%. The “T/C (%)” value (LNCaP xenografts; [8]) was 24%, the “T/C (%)” value (LNCaP xenografts; [4]) was 7% and the “growth of A431 xenografts” value ([1]; 3 doses of 4 μg, intraperitoneally Q4D×3, up to 27 days following treatment) was “significantly (p=0.03) inhibited”. The “T/C (%)” value ([1]; A431, 1.00 μg per dose, 27 days after first dose) was 146%, the “T/C (%)” value ([1]; A431, 2.00 μg per dose, 27 days after first dose) was 72% and the “time xenografts remained significantly (p=0.004) smaller than the controls” value ([1]; A431, 2 μg/dose, intraperitoneally Q4D×3 (FIG. 1A)) was 21 days. The “T/C (%)” value ([1]; A431, 4.00 μg per dose, Q4D×3, 27 days after first dose) was 21% and 35%, the “T/C (%)” value ([1]; A431, 4.00 μg per dose, Q4D×3, 28 days after first dose) was 12% and the “average tumor size as % of the control tumors” value ([1]; A431, 2 μg Q4D×3) was 23%. For the same molecule, the “average tumor size as % of the control tumors” value ([1]; A431, 4 μg Q4D×3) was 11%, the “tumor growth inhibition of A431 xenografts” value (from here on “tumor growth inhibition”) [1, 10] was “Significant growth inhibition” and the “T/C (%)” value (A431/Le^Y xenografts; [3]) was 37%. For the same molecule, the “T/C (%)” value (A431/Le^Y xenografts; [4]) was <1%, the “% ID/g value in function of time, tumor tissue” value ([2]; A431 tumor tissue, 2 to 96 h) was “steady increase” and the “doubling time of accumulation in tumor” value ([2]; A431 tumors, 125I-labeled conjugate, lateral tail vein) was 150 h. The “% Blood (100×Bq per gram tissue/Bq per gram blood), brain, on average” value ([2]; brain, within 96 hours, 125I-labeled conjugate) was 3.5%, the “time of highest % Blood-value” ([2]; heart, intestine and spleen, after injection, then steadily decreased) was 2 h and the “time of peak of the % Blood-value” ([2]; liver and striated muscle) was 48 h. For the same molecule, the “% ID/g in function of time, all the other tissues examined” value ([2]; normal tissues, 2 to 96 h) was “decreased in function of time” and the “time after which % Blood-value reached a plateau” value ([2]; skin) was 24 h.
For “hp67.6-Amide-CalichDMA: hp67.6 linked to CalichDMA with the acid stabile Amide (4-mercapto-4-methyl-pentanoic acid) linker”, the “tumor growth inhibition” value [1, 11] was “did not inhibit tumor growth” and the “tumor growth inhibition” value [1, 10] was “did not yield significant tumor growth inhibition”.
With `CCN(C(C)=O)[C@H]1CO[C@@H](O[C@H]2[C@H](O[C@H]3C#C/C=C\C#C[C@]4(O)CC(=O)C(NC(=O)OC)=C3/C4=C\CSSC(C)(C)CC(=O)NN)O[C@H](C)[C@@H](NO[C@H]3C[C@H](O)[C@H](SC(=O)c4c(C)c(I)c(O[C@@H]5O[C@@H](C)[C@H](O)[C@@H](OC)[C@H]5O)c(OC)c4OC)[C@@H](C)O3)[C@@H]2O)C[C@@H]1OC` [CalichDMH, N-acetyl-γ-calicheamicin dimethyl hydrazide] the “tumor growth inhibition” value [1, 11] was “did not inhibit tumor growth” and the “tumor growth inhibition” value [1, 10] was “did not yield significant tumor growth inhibition”.
